One may read the IC50 as the concentration that gives 50% inhibition.

One experiment concerns the target Brd4 BD2 (Homo sapiens (Human), UniProt O60885). Nature of the experiment: HTRF evaluation of bromodomain inhibitors, Brd4 BD2. It is filed as binding. Conditions: for IC50: HTRF, H4ac4 peptide 600 nM, 24 h at 4° C.; for Selectivity BD2/BD1: ratio of the BD1 and BD2 IC50. The procedure:
(§1) HTRF reagents and buffers were purchased from Cisbio Bioassays. The assay used a terbium (Ill) cryptate donor reagent conjugated to an anti-GST antibody (MAb anti-GST-Tb; GSTTLA), a streptavidin-conjugated acceptor reagent (streptavidin-d2) and Cisbio proprietary buffers (EPlgeneous Binding Domain Diluent and Detection buffer, respectively). GST-tagged bromodomains (BDs) were expressed in E. coli and purified using standard procedures. Incubation of GST-tagged BDs with biotinylated acetylated H4 peptide (H4K5acK8acK12acK16ac, here named H4ac4) brings the donor and acceptor into close proximity and allows for a FRET reaction. GST-tagged proteins in 25 mM Hepes pH 7.5, 150 mM NaCl, 0.5 mM DTT were assayed at a final concentration of 5 nM. Biotinylated H4ac4 peptides were used at a final concentration of 50, 600 nM in assays involving Brd4 BD1, Brd4 BD2, respectively. The antibody-conjugated donor was used at 0.5 nM and the streptavidin-conjugated acceptor was used at ⅛ of the H4ac4 peptide concentration. Inhibitors were tested by performing an eleven-point dilution series with a maximal final concentration of […]. These concentrations allowed a fixed DMSO concentration at 0.2%, critical for a Z′ factor ≥0.8. Components were incubated at 4° C. for 4 h (BD1) or for 24 h (BD2). Experiments were performed in 384-well white plates (Greiner ref. 781080) and analyzed in a ClarioStar plate reader (BMG LABTECH, excitation at 330 nm and emission at 620 and 665 nm, corresponding to the donor and acceptor emission peaks, respectively; the 665/620 ratio is used to calculate the specific HTRF signal) with an integration delay of 60 μs and an integration time of 400 μs.
A general note: Time-resolved FRET reads energy transfer from a long-lived donor to a nearby acceptor.

For a further experiment, the target named is Brd4 BD1 (Homo sapiens (Human), UniProt O60885). Nature of the experiment: HTRF evaluation of bromodomain inhibitors, Brd4 BD1. Conditions: H4ac4 peptide 50 nM, 4 h at 4° C. It is filed as binding. Here is the method: as §1

Structures are written as SMILES. Where only a bound is given, the exact number is not on record here.

As to `CC[C@@H]1[C@H](C)[C@@H](Nc2ncc(Cl)cn2)c2cc(C(=O)OC)ccc2N1C(C)=O` [ent-XL], the results for the IC50 on Brd4 BD2 and at Brd4 BD1 were 7440 nM and more than 100000 nM, respectively.
`CC[C@H]1[C@@H](C)[C@H](n2cc(-c3ccccc3)nn2)c2cc(C(=O)OC)ccc2N1C(C)=O` [Compound 28, Methyl-(2S,3R,4S)-1-acetyl-2-ethyl-3-methyl-4-(4-phenyl-1H-1,2,3-triazol-1-yl)-1,2,3,4-tetrahydroquinoline-6-carboxylate]: at Brd4 BD2, the half-maximal inhibitory concentration (IC50) worked out at 567 nM and the “Selectivity BD2/BD1” value is recorded as 14.7. On Brd4 BD1, it took 8310 nM to reach half-maximal inhibition (IC50).
On the same counts, the results for `CC[C@H]1[C@@H](C)[C@H](n2cc(COCCOCC#Cc3cccc4c3CN(C3CCC(=O)NC3=O)C4=O)nn2)c2cc(C(=O)OC)ccc2N1C(C)=O` (stereo partly drawn) [YE, Methyl-(2S,3R,4S)-1-acetyl-4-(4-((2-((3-(2-(2,6-dioxopiperidin-3-yl)-1-oxoisoindolin-4-yl)prop-2-yn-1-yl)oxy)ethoxy)methyl)-1H-1,2,3-triazol-1-yl)-2-ethyl-3-methyl-1,2,3,4-tetrahydroquinoline-6-carboxylate] are 486 nM, 16.2 and 7870 nM.
On the same counts, the results for `C=CCCCC(=O)Nc1ccc(-c2ccc3c(c2)[C@H](N=[N+]=[N-])[C@@H](C)[C@@H](CC)N3C(C)=O)cc1` [ent-XC] are 4430 nM, 5.1 and 22400 nM.
Consider `C#CCOCCOCCOCCOCCOCc1cn([C@@H]2c3cc(C(=O)OC)ccc3N(C(C)=O)[C@@H](CC)[C@H]2C)nn1` [XS, Methyl-(2S,3R,4S)-4-(4-(2,5,8,11,14-pentaoxaheptadec-16-yn-1-yl)-1H-1,2,3-triazol-1-yl)-1-acetyl-2-ethyl-3-methyl-1,2,3,4-tetrahydroquinoline-6-carboxylate], for which, on Brd4 BD2, the half-maximal inhibitory concentration (IC50) was 1300 nM and the “Selectivity BD2/BD1” value was found to be 23.1. Besides, the IC50 on Brd4 BD1 was approximately 30000 nM.
Take `CC[C@H]1[C@@H](C)[C@H](n2cc(-c3ccc(C(F)(F)F)cc3)nn2)c2cc(C(=O)OC)ccc2N1C(C)=O` [XN, Methyl (2S,3R,4S)-1-acetyl-2-ethyl-3-methyl-4-(4-(4-(trifluoromethyl)phenyl)-1H-1,2,3-triazol-1-yl)-1,2,3,4-tetrahydroquinoline-6-carboxylate]: on Brd4 BD2, half-maximal inhibition (IC50) required 1910 nM and the “Selectivity BD2/BD1” value turned out to be 7.6. This molecule registered a 50% inhibitory concentration (IC50) against Brd4 BD1 of 14500 nM.
For the molecule `CCCCCc1cn([C@@H]2c3cc(C(F)(F)F)ccc3N(C(C)=O)[C@@H](CC)[C@H]2C)nn1` [YD, 1-((2S,3R,4S)-2-ethyl-3-methyl-4-(4-pentyl-1H-1,2,3-triazol-1-yl)-6-(trifluoromethyl)-3,4-dihydroquinolin-1(2H)-yl)ethan-1-one], at Brd4 BD2, the half-maximal inhibitory concentration (IC50) turned out to be 5710 nM and the “Selectivity BD2/BD1” value was found to be 7.3. Besides, half-maximal inhibition at Brd4 BD1 (IC50) required 41800 nM.
Regarding `CC[C@H]1[C@@H](C)[C@H](N=[N+]=[N-])c2cc(C(F)(F)F)ccc2N1C(C)=O` [YB, 1-((2S,3R,4S)-4-azido-2-ethyl-3-methyl-6-(trifluoromethyl)-3,4-dihydroquinolin-1(2H)-yl)ethan-1-one], the IC50 against Brd4 BD2 amounted to 7570 nM; on Brd4 BD1, 67000 nM. In addition, the “Selectivity BD2/BD1” value at Brd4 BD2 is given as 8.8.
On the same counts, the results for `CC[C@H]1[C@@H](C)[C@H](n2cc(COCCOCCOCCOCCOCc3cn(C4c5cc(C(=O)OC)ccc5N(C(C)=O)[C@@H](CC)[C@H]4C)nn3)nn2)c2cc(C(=O)OC)ccc2N1C(C)=O` (stereo partly drawn) [XX, Dimethyl-4,4′-((2,5,8,11,14-pentaoxapentadecane-1,15-diyl)bis(1H-1,2,3-triazole-4,1-diyl))(2S,2'S,3R,3′R,4S,4'S)-bis(1-acetyl-2-ethyl-3-methyl-1,2,3,4-tetrahydroquinoline-6-carboxylate)] are 129 nM, 1470 nM and 11.5.
Turning to `CC[C@H]1[C@H](C)[C@@H](n2cc(-c3ccccc3)nn2)c2cc(C(=O)OC)ccc2N1C(C)=O` [Compound 31, Methyl-(2S,3S,4R)-1-acetyl-2-ethyl-3-methyl-4-(4-phenyl-1H-1,2,3-triazol-1-yl)-1,2,3,4-tetrahydroquinoline-6-carboxylate], the IC50 was 14900 nM at Brd4 BD2 and more than 200000 nM against Brd4 BD1.
On the same counts, the results for `CC[C@@H]1[C@H](C)[C@@H](n2cc(-c3ccccc3)nn2)c2cc(C(=O)OC)ccc2N1C(C)=O` (single isomer, unassigned) [ent-28] are 51400 nM and more than 100000 nM.
In the case of `C=CCCCC(=O)Nc1ccc(-c2ccc3c(c2)[C@H](NC(=O)OC(C)C)[C@@H](C)[C@@H](CC)N3C(C)=O)cc1` [ent-XI], on Brd4 BD2, the IC50 was found to be 2940 nM and the “Selectivity BD2/BD1” value was 2.0. The molecule also gave an IC50 against Brd4 BD1 of 5740 nM.
On the same counts, the results for `CC[C@H]1[C@@H](C)C(n2cc(COCCOCCOCCOCCOCCOCc3cn(C4c5cc(C(=O)OC)ccc5N(C(C)=O)[C@@H](CC)[C@H]4C)nn3)nn2)c2cc(C(=O)OC)ccc2N1C(C)=O` (stereo partly drawn) [XY, Dimethyl-4,4′-((2,5,8,11,14,17-hexaoxaoctadecane-1,18-diyl)bis(1H-1,2,3-triazole-4,1-diyl))(2S,2'S,3R,3′R,4S,4'S)-bis(1-acetyl-2-ethyl-3-methyl-1,2,3,4-tetrahydroquinoline-6-carboxylate)] are 95 nM, 16.4 and 1560 nM.
On the same counts, the results for `C=CCCCC(=O)Nc1ccc(-c2ccc3c(c2)[C@@H](N=[N+]=[N-])[C@H](C)[C@H](CC)N3C(C)=O)cc1` [XC, N-(4-((2S,3R,4S)-1-acetyl-4-azido-2-ethyl-3-methyl-1,2,3,4-tetrahydroquinolin-6-yl)phel)hex-5-enamide] are 2230 nM, 1.4 and 3100 nM.
On the same counts, the results for `CC[C@H]1[C@@H](C)C(n2cc(COCCOCc3cn(C4c5cc(C(=O)OC)ccc5N(C(C)=O)[C@@H](CC)[C@H]4C)nn3)nn2)c2cc(C(=O)OC)ccc2N1C(C)=O` (stereo partly drawn) [XU, Dimethyl-4,4′-(((ethane-1,2-diylbis(oxy))bis(methylene))bis(1H-1,2,3-triazole-4,1-diyl))(2S,2'S,3R,3′R,4S,4'S)-bis(1-acetyl-2-ethyl-3-methyl-1,2,3,4-tetrahydroquinoline-6-carboxylate)] are 57 nM, 4.3 and 247 nM.
With `CC[C@@H]1[C@H](C)[C@@H](N=[N+]=[N-])c2cc(C(=O)OC)ccc2N1C(C)=O` (single isomer, unassigned) [ent-27], the half-inhibitory concentration (IC50) at Brd4 BD2 and on Brd4 BD1 was more than 100000 nM throughout.
Regarding `C=CCCCC(=O)Nc1ccc(-c2ccc3c(c2)[C@H](n2cc(CCCCC)nn2)[C@@H](C)[C@@H](CC)N3C(C)=O)cc1` [ent-XE], the IC50 at Brd4 BD2 and against Brd4 BD1 was more than 100000 nM throughout.
`C=CCCCC(=O)Nc1ccc(-c2ccc3c(c2)[C@H](Nc2ncc(Cl)cn2)[C@@H](C)[C@@H](CC)N3C(C)=O)cc1` [ent-XK]: on Brd4 BD2, the IC50 stood at 2020 nM and the “Selectivity BD2/BD1” value is 3.0. Moreover, on Brd4 BD1, half-maximal inhibition (IC50) was put at 6090 nM.
